According to ChEMBL document CHEMBL1154782, “Discovery of Trp-His and His-Arg analogues as new structural classes of short antimicrobial peptides” (J Med Chem, 2009):
Values after ≈ are worked out from the molar mass of the structure shown. Where a SMILES comes first, the peptide text is derived from it. The star is where a group is joined. Boc = CC(C)(C)OC(=O)*; NHBn = c1ccc(CN*)cc1

What was measured:
Staphylococcus aureus [1] = experiment: Antibacterial activity against methicillin-resistant Staphylococcus aureus DSM 50128509 after 15 to 18 hrs under aerobic condition by modified broth microdilution method; format: functional
Staphylococcus aureus [2] = experiment: Antibacterial activity against methicillin-resistant Staphylococcus aureus DSM 50128509; format: functional, organism-based
[3] = test system: Staphylococcus epidermidis; experiment: Antibacterial activity against methicillin-resistant Staphylococcus epidermidis DSM 50160384 after 15 to 18 hrs under aerobic condition by modified broth microdilution method; format: functional
[4] = test system: Staphylococcus epidermidis; experiment: Antibacterial activity against methicillin-resistant Staphylococcus epidermidis DSM 50160384; format: functional, organism-based
Escherichia coli [5] = experiment: Antibacterial activity against Escherichia coli ATCC 35218 after 15 to 18 hrs under aerobic condition by modified broth microdilution method; format: functional
Escherichia coli [6] = experiment: Antibacterial activity against Escherichia coli ATCC 35218; format: functional, organism-based
Klebsiella pneumoniae = experiment: Antibacterial activity against Klebsiella pneumoniae ATCC 700603 after 15 to 18 hrs under aerobic condition by modified broth microdilution method; format: functional
Pseudomonas aeruginosa = experiment: Antibacterial activity against Pseudomonas aeruginosa ATCC 9027 after 15 to 18 hrs under aerobic condition by modified broth microdilution method; format: functional
Candida albicans [7] = experiment: Antifungal activity against Candida albicans ATCC 10231 after 15 to 18 hrs under aerobic condition by modified broth microdilution method; format: functional
L929 = experiment: Cytotoxicity against mouse L929 cells up to 200 ug/mL after 5 days by MTT assay; format: cell-based; conditions: l929, 120 h
Candida albicans [8] = experiment: Antifungal activity against Candida albicans ATCC 10231; format: functional, organism-based

Row | SMILES | MIC (Staphylococcus aureus [1]) | IC50 (Staphylococcus aureus [2]) | MIC [3] | IC50 [4] | MIC (Escherichia coli [5]) | IC50 (Escherichia coli [6]) | MIC (Klebsiella pneumoniae) | MIC (Pseudomonas aeruginosa) | MIC (Candida albicans [7]) | Activity (L929) | IC50 (Candida albicans [8])
1 | COC(=O)[C@H](Cc1c[nH]c(C(C)(C)C)n1)NC(=O)[C@@H](N)Cc1c[nH]c2ccccc12 | 10 µg/mL (≈ 24.3 µM) | 4.21 µg/mL (≈ 10.2 µM) | 100 µg/mL (≈ 243 µM) | 6.73 µg/mL (≈ 16.4 µM) | 200 µg/mL (≈ 486 µM) | 19 µg/mL (≈ 46.2 µM) | > 200 µg/mL | > 200 µg/mL | > 200 µg/mL | Non-toxic | –
2 | COC(=O)[C@H](CCCNC(=N)N)NC(=O)[C@H](Cc1c[nH]c(C(C)C)n1)NC(=O)OC(C)(C)C | 200 µg/mL (≈ 428 µM) | 12.4 µg/mL (≈ 26.6 µM) | 200 µg/mL (≈ 428 µM) | 13.1 µg/mL (≈ 28 µM) | > 200 µg/mL | – | > 200 µg/mL | > 200 µg/mL | 200 µg/mL (≈ 428 µM) | Non-toxic | 20.9 µg/mL (≈ 44.6 µM)
3 | CC(C)(C)OC(=O)N[C@@H](Cc1c[nH]c2ccccc12)C(=O)N[C@@H](Cc1c[nH]c(C2CCCCC2)n1)C(=O)NCc1ccccc1 | 200 µg/mL (≈ 326 µM) | 31.7 µg/mL (≈ 51.7 µM) | 200 µg/mL (≈ 326 µM) | 23.8 µg/mL (≈ 38.9 µM) | > 200 µg/mL | – | > 200 µg/mL | > 200 µg/mL | > 200 µg/mL | Non-toxic | –
4 | CC(C)(C)OC(=O)N[C@@H](Cc1c[nH]c2ccccc12)C(=O)N[C@@H](Cc1c[nH]c(C23CC4CC(CC(C4)C2)C3)n1)C(=O)NCc1ccccc1 | 100 µg/mL (≈ 150 µM) | 7.59 µg/mL (≈ 11.4 µM) | 200 µg/mL (≈ 301 µM) | 29.1 µg/mL (≈ 43.7 µM) | > 200 µg/mL | – | 200 µg/mL (≈ 301 µM) | > 200 µg/mL | 200 µg/mL (≈ 301 µM) | Non-toxic | 28.3 µg/mL (≈ 42.6 µM)
5 | COC(=O)[C@H](CCCNC(=N)N)NC(=O)[C@H](Cc1c[nH]c(C(C)(C)C)n1)NC(=O)OC(C)(C)C | 100 µg/mL (≈ 208 µM) | 4.15 µg/mL (≈ 8.62 µM) | 200 µg/mL (≈ 415 µM) | 20.1 µg/mL (≈ 41.8 µM) | > 200 µg/mL | – | > 200 µg/mL | > 200 µg/mL | > 200 µg/mL | Non-toxic | –
6 | CC(C)(C)OC(=O)N[C@@H](Cc1c[nH]cn1)C(=O)N[C@@H](CCCNC(=N)N)C(=O)NCc1ccccc1 (Boc-His-Arg-NHBn) | > 200 µg/mL | – | 100 µg/mL (≈ 200 µM) | 8.79 µg/mL (≈ 17.6 µM) | > 200 µg/mL | – | > 200 µg/mL | > 200 µg/mL | > 200 µg/mL | Non-toxic | –
7 | COC(=O)[C@H](CCCNC(=N)N)NC(=O)[C@H](Cc1c[nH]cn1)NC(=O)OC(C)(C)C (Boc-His-Arg-OMe) | > 200 µg/mL | – | 100 µg/mL (≈ 235 µM) | 5.07 µg/mL (≈ 11.9 µM) | > 200 µg/mL | – | > 200 µg/mL | > 200 µg/mL | > 200 µg/mL | Non-toxic | –
8 | COC(=O)[C@H](Cc1c[nH]cn1)NC(=O)[C@H](Cc1c[nH]c2ccccc12)NC(=O)OC(C)(C)C (Boc-Trp-His-OMe) | 200 µg/mL (≈ 439 µM) | 16.4 µg/mL (≈ 35.9 µM) | > 200 µg/mL | – | > 200 µg/mL | – | > 200 µg/mL | > 200 µg/mL | 200 µg/mL (≈ 439 µM) | Non-toxic | 31.4 µg/mL (≈ 68.9 µM)
9 | N=C(N)NCCC[C@H](NC(=O)[C@@H](N)Cc1c[nH]cn1)C(=O)NCc1ccccc1 (H-His-Arg-NHBn) | 100 µg/mL (≈ 250 µM) | 7.04 µg/mL (≈ 17.6 µM) | 100 µg/mL (≈ 250 µM) | 8.07 µg/mL (≈ 20.2 µM) | > 200 µg/mL | – | > 200 µg/mL | > 200 µg/mL | 200 µg/mL (≈ 499 µM) | Non-toxic | 16.6 µg/mL (≈ 41.5 µM)
10 | COC(=O)[C@H](CCCNC(=N)N)NC(=O)[C@@H](N)Cc1c[nH]cn1 (H-His-Arg-OMe) | 100 µg/mL (≈ 307 µM) | 4.88 µg/mL (≈ 15 µM) | 50 µg/mL (≈ 154 µM) | 2.72 µg/mL (≈ 8.36 µM) | > 200 µg/mL | – | > 200 µg/mL | > 200 µg/mL | > 200 µg/mL | Non-toxic | –
11 | N[C@@H](Cc1c[nH]c2ccccc12)C(=O)N[C@@H](Cc1c[nH]cn1)C(=O)NCc1ccccc1 (H-Trp-His-NHBn) | 200 µg/mL (≈ 465 µM) | 12.3 µg/mL (≈ 28.5 µM) | 200 µg/mL (≈ 465 µM) | 29 µg/mL (≈ 67.3 µM) | > 200 µg/mL | – | > 200 µg/mL | > 200 µg/mL | 200 µg/mL (≈ 465 µM) | Non-toxic | 15.2 µg/mL (≈ 35.2 µM)
12 | C[C@@H]1[C@H](O)[C@@H](C)/C=C/C=C/C=C/C=C/C=C/C=C/C=C/[C@H](O[C@@H]2O[C@H](C)[C@@H](O)[C@H](N)[C@@H]2O)C[C@@H]2O[C@](O)(C[C@@H](O)C[C@@H](O)[C@H](O)CC[C@@H](O)C[C@@H](O)CC(=O)O[C@H]1C)C[C@H](O)[C@H]2C(=O)O [AMPHOTERICIN B] | – | – | – | – | – | – | – | – | – | – | 0.34 µg/mL (≈ 0.368 µM)
13 | CN[C@@H]1[C@H](O[C@H]2[C@H](O[C@H]3[C@H](O)[C@@H](O)[C@H](N=C(N)N)[C@@H](O)[C@@H]3N=C(N)N)O[C@@H](C)[C@]2(O)C=O)O[C@@H](CO)[C@H](O)[C@H]1O [STREPTOMYCIN] | – | – | – | – | – | 0.73 µg/mL (≈ 1.26 µM) | – | – | – | – | –
14 | CN[C@H](CC(C)C)C(=O)N[C@H]1C(=O)N[C@@H](CC(N)=O)C(=O)N[C@H]2C(=O)N[C@H]3C(=O)N[C@H](C(=O)N[C@H](C(=O)O)c4cc(O)cc(O)c4-c4cc3ccc4O)[C@H](O)c3ccc(c(Cl)c3)Oc3cc2cc(c3O[C@@H]2O[C@H](CO)[C@@H](O)[C@H](O)[C@H]2O[C@H]2C[C@](C)(N)[C@H](O)[C@H](C)O2)Oc2ccc(cc2Cl)[C@H]1O [VANCOMYCIN] | – | 0.14 µg/mL (≈ 0.0966 µM) | – | 0.14 µg/mL (≈ 0.0966 µM) | – | – | – | – | – | – | –
